Common to all, as to format: cell-based, human
One assay concerns primary hepatocytes. The experiment in a line: 3D organoid culture of adult donor-derived primary hepatocytes (HepAOs): organoid formation and expansion. As to conditions: single hepatocyte suspensions from adult donors, supplemented EM, over 2 weeks (FIG. 1E). Here is the method:
Human hepatic cells were counted and seeded at a concentration of 100 cells per μL of the ECM Matrigel™ (Corning™). The cell-ECM mix were seeded on 24 well plates Greiner™) that had been incubated 24 hours prior at 37° C. A total of 50 μL of Matrigel™ were added to the center of each well to form a dome shaped chamber and incubated for 5-8 minutes at 37° C. before adding 500 μμL of isolation medium to each well. Media specifications and storage times are indicated.
After 4 days, the isolation medium was substituted for expansion medium (EM) containing 10 μM ROCK inhibitor (Y-27632). The EM was replenished three times per week.
After the first 6 days in culture, the ROCK inhibitor was removed from the media. The cells within the ECM mix were expanded for 14 days to form organoids. After 14 days, the media was supplemented with 25 ng/mL of BMP7, and the organoids were cultured for 5 days before replacing the media with hepatocyte differentiation medium (DM). The DM were replenished every 3 days. At day 7 of differentiation, the organoids were used for analyses. […]
We assessed the organoid-forming efficiency at one week in single cell derived organoids (FIG. 1B and FIG. 1C). […]

The next assay concerns HepG2 cells. Description: 3D organoid culture of HepG2 cells (HepGOs): organoid counts. As to conditions: compared to serum-containing growth media (HepG2 GM) (FIG. 3B). An excerpt:
Well-differentiated hepatoma cell lines HepG2, PLC/PRF/5, and HuH7 were maintained as previously described. In initial studies, classical culture media was used, containing high glucose concentration (4.5 g/L) corresponding to systemic hyperglycemia. Low glucose concentrations corresponding to normoglycemia (1 g/L) were utilized in parallel to study the effects on cell proliferation. HepG2 cells were first cultured in monolayer. Once 80-90% confluence was reached the cells were collected and used to start the organoid culture. HepGOs were generated on 48 well tissue culture plates (Grenier™). The plates were left overnight at 37° C. before using them to plate the Matrigel™ matrix. Cells were plated at a concentration of approximately 40 cells per μL of Matrigel™. We used a 25 μL drop/well to form the organoid dome at the center and the organoid dome were overlaid with 250 μLs of human expansion medium (EM) with the multiple EM variations tested. The plates were then incubated for 7 days under standard tissue culture conditions (37° C. and 5% CO2). Media was changed every other day. After 7 days of expansion, the media was replaced with differentiation media (DM). The organoids were cultured for an additional 7 days, at which point the organoids were used for analysis.

A further assay has as its system HepGOs. The experiment in a line: Glucose production assay in HepGOs. As to conditions: HepGOs expanded in EM+F+OSM, 24-hour starvation, 24 hours production (FIG. 7D). How it is done:
Prior to each glucose production assay, organoid cells were serum starved for 3 and 24 hours. The assay was done in 3D organoid culture media, containing no glucose or pyruvate. For substrate glucose production assays, the glucose production basal media (BM) were supplemented with either glycerol, glucagon, or a combination of both. Data were obtained by obtaining media from wells that contained 12-14 Matrigel™ droplets containing approximately 1,400 organoids. Glucose measurements were done enzymatically with a Glucose Assay Kit (Abcam™).
The HepGOs were starved for 3 or 24 hours and then allowed to produce glucose for 24 hours. The glucose production basal media (BM) was supplemented with either glycerol, glucagon, or a combination of the two. Data was obtained pooled organoids with a total of ˜70,000 organoid cells. The scale bar is 100 μm. (**p<0.01, *p<0.05).

The next assay has as its system G6PC. The experiment in a line: Q-PCR expression of G6PC in organoids. As to conditions: fresh or frozen and re-expanded organoids, EM conditions C3-C5 (FIG. 5). How it is done:
(§1) RNA was first extracted from the differentiated organoids using Trizol™. RNA was used for cDNA synthesis using the iScript Kit (BioRad™). Quantitative PCR (Q-PCR) was performed for targets of interest including G6PC, PCK1, and AFP using Bio-Rad™ CFX96. Bio Rad™'s SYBR Green (SG), a asymmetrical cyanine dye used as a nucleic acid stain in Q-PCR super mix was used with the target-specific primers. See Table 3, below for a description of the primers used for hepatocyte expression. The data was analyzed using Excel™ and Prism 8™.
(§2) HepGOs were expanded for one month, and then media were supplemented with 25 ng/mL BMP7 for 5 days before replacing the media with hepatocyte DM for one week. The data are from experiments that were done in at least in duplicate with three replicates per condition and were normalized to the endogenous control (β-Actin) and HepG2 GM cultures. The scale bar is 100 μm.

The subject of a further assay is PCK1. The experiment in a line: Q-PCR expression of PCK1 in organoids. As to conditions: fresh or frozen and re-expanded organoids, EM conditions C3-C5 (FIG. 5). Here is the method: as §1, §2

`Cc1cccc(-c2nn(C(=S)Nc3ccccc3)cc2-c2ccnc3ccccc23)n1` [A8301]: in the assay with primary hepatocytes, the “number of organoids formed / expansion” value is “showed the least number of organoids being formed”. Also, the HepGO number result with HepG2 cells is “significantly limited the 3D culture and expansion of HepG2 cells”.

Consider glucagon, for which the glucose production result in the assay on HepGOs is listed as “significantly enhanced glucose production”.

B1: BMP7: bone morphogenetic protein 7 (protein, UniProt P18075 293-431, looked up)
Bone morphogenetic protein 7: STGSKQRSQNRSKTPKNQEALRMANVAENSSSDQRQACKKHELYVSFRDLGWQDWIIAPEGYAAYYCEGECAFPLNSYMNATNHAIVQTLVHFINPETVPKPCCAPTQLNAISVLYFDDSSNVILKKYRNMVVRACGCH
As to B1, the HepGO number entry in the assay on HepG2 cells is “slightly but not significantly improved HepGO number”.

B2: OSM: oncostatin M, a member of the IL-6 family of cytokines (protein, UniProt P13725 26-221, looked up)
Oncostatin-M: AAIGSCSKEYRVLLGQLQKQTDLMQDTSRLLDPYIRIQGLDVPKLREHCRERPGAFPSEETLRGLGRRGFLQTLNATLGCVLHRLADLEQRLPKAQDLERSGLNIEDLEKLQMARPNILGLRNNIYCMAQLLDNSDTAEPTKAGRGASQPPTPTPASDAFQRKLEGCRFLHGYHRFMHSVGRVFSKWGESPNRSRR
In the case of B2, the “induction of G6PC expression” value in the assay with G6PC is given as “tend to decrease at one month post differentiation”. Also, in the assay with PCK1, the “induction of PCK1 expression” value was “tend to decrease at one month post differentiation”.
